# Measured values as given in patent US10770169B2, “Method of providing a treatment to a subject based on a dynamic pathway map” (THE REGENTS OF THE UNIVERSITY OF CALIFORNIA, priority 2010, dated 2020).
# “Also recorded” adds a separate entry of the source.
# Key:
# breast cancer cell lines = experiment: Association of growth rate and response (2-way ANCOVA); type: cell-based, human
# Excerpt: To assess the effects of cell line class and growth rate on drug sensitivity, we performed a set of 2-way Analysis of Covariance (ANCOVA) tests, one for each of the three cell line classification schemes described above. […] We performed these analyses in R with the functions lm and ANOVA, which is available as part of the car package.
# [1] = tested on: panel of 55 breast cancer cell lines; experiment: Cell growth inhibition assay (Cell Titer Glo, 72 h, 9 doses; GI50, TGI, LC50); type: cell-based, human; conditions: value is the negative log10 of mol/L
# [2] = tested on: luminal, basal, claudin-low and ERBB2AMP breast cancer cell lines; experiment: Associations of clinically relevant subtypes and response (non-parametric ANOVA or t-test on GI50 ranks); type: cell-based, human
# In short: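 GI50 values were compared between cell-line subtype groups by non-parametric ANOVA or t-test on ranks. P-values from three test sets were combined and FDR-corrected. Significant three-group effects were followed by post-hoc comparison of each group against all others, and FDR p<0.20 counted as significant.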
# [3] = tested on: TCR-activated CD4(+) T cells; conditions: cited from earlier work
smiles,measurement,setting,value
"O=c1[nH]cc(F)c(=O)[nH]1 [5-FU, 5-florouracil]",significance of subtype and doubling time in ANCOVA model,breast cancer cell lines; listed as 5-florouracil,not significant in the subtype test alone but showed strong significance in the ANCOVA model for both class and doubling time
same,significance of subtype and doubling time in ANCOVA model,breast cancer cell lines; listed as 5′FU,strong effects of both subtype and growth rate on response
same,response as a function of doubling time,breast cancer cell lines; luminal and basal cell lines,decreased as doubling time increased in both luminal and basal cell lines
Cc1cc(Nc2cc(N3CCN(C)CC3)nc(Sc3ccc(NC(=O)C4CC4)cc3)n2)n[nH]1 [VX-680],GI50,"[1]; AU565 cell line, censored GI50 values",5.66
same,GI50,"[1]; BT20 cell line, censored GI50 values",4.72
same,GI50,"[1]; BT474 cell line, censored GI50 values",4.54
same,GI50,"[1]; BT483 cell line, censored GI50 values",5.44
same,GI50,"[1]; HCC38 cell line, censored GI50 values",6.94
same,GI50,"[1]; HCC70 cell line, censored GI50 values",5.35
same,GI50,"[1]; HCC1143 cell line, censored GI50 values",5.98
same,GI50,"[1]; HCC1187 cell line, censored GI50 values",6.93
same,GI50,"[1]; HCC1419 cell line, censored GI50 values",4.81
same,GI50,"[1]; HCC1428 cell line, censored GI50 values",5.10
same,GI50,"[1]; HCC1500 cell line, censored GI50 values",4.56
same,GI50,"[1]; HCC1937 cell line, censored GI50 values",5.10
same,GI50,"[1]; HCC2185 cell line, censored GI50 values",6.46
same,GI50,"[1]; HCC3153 cell line, censored GI50 values",4.76
same,GI50,"[1]; MCF7 cell line, censored GI50 values",5.08
same,GI50,"[1]; MDAMB134VI cell line, censored GI50 values",6.11
same,GI50,"[1]; MDAMB175VII cell line, censored GI50 values",4.61
same,GI50,"[1]; MDAMB361 cell line, censored GI50 values",5.63
same,GI50,"[1]; MDAMB415 cell line, censored GI50 values",4.86
same,GI50,"[1]; MDAMB436 cell line, censored GI50 values",6.19
same,GI50,"[1]; MDAMB453 cell line, censored GI50 values",5.03
same,GI50,"[1]; MDAMB468 cell line, censored GI50 values",6.95
same,GI50,"[1]; SUM52PE cell line, censored GI50 values",6.41
same,GI50,"[1]; SUM149PT cell line, censored GI50 values",5.07
same,GI50,"[1]; SUM159PT cell line, censored GI50 values",6.37
same,GI50,"[1]; SUM185PE cell line, censored GI50 values",5.62
same,GI50,"[1]; SUM1315MO2 cell line, censored GI50 values",5.65
same,GI50,"[1]; T47D cell line, censored GI50 values",5.03
same,GI50,"[1]; ZR75B cell line, censored GI50 values",6.79
same,GI50,"[1]; ZR751 cell line, censored GI50 values",5.27
same,GI50,[1]; cell line AU565,5.66
same,GI50,[1]; cell line BT20,4.72
same,GI50,[1]; cell line BT474,4.54
same,GI50,[1]; cell line BT483,5.44
same,GI50,[1]; cell line CAMA1,4.58
same,GI50,[1]; cell line HCC38,6.94
same,GI50,[1]; cell line HCC70,5.35
same,GI50,[1]; cell line HCC1143,5.98
same,GI50,[1]; cell line HCC1187,6.93
same,GI50,[1]; cell line HCC1419,4.81
same,GI50,[1]; cell line HCC1428,5.10
same,GI50,[1]; cell line HCC1500,4.56
same,GI50,[1]; cell line HCC1937,5.10
same,GI50,[1]; cell line HCC1954,4.48
same,GI50,[1]; cell line HCC2185,6.46
same,GI50,[1]; cell line HCC3153,4.76
same,GI50,[1]; cell line MCF7,5.08
same,GI50,[1]; cell line MDAMB134V,6.11
same,GI50,[1]; cell line MDAMB175V,4.61
same,GI50,[1]; cell line MDAMB361,5.63
same,GI50,[1]; cell line MDAMB415,4.86
same,GI50,[1]; cell line MDAMB436,6.19
same,GI50,[1]; cell line MDAMB453,5.03
same,GI50,[1]; cell line MDAMB468,6.95
same,GI50,[1]; cell line SKBR3,4.48
same,GI50,[1]; cell line SUM52PE,6.41
same,GI50,[1]; cell line SUM149PT,5.07
same,GI50,[1]; cell line SUM159PT,6.37
same,GI50,[1]; cell line SUM185PE,5.62
same,GI50,[1]; cell line SUM1315MO,5.65
same,GI50,[1]; cell line T47D,5.03
same,GI50,[1]; cell line UACC812,4.50
same,GI50,[1]; cell line ZR75B,6.79
same,GI50,[1]; cell line ZR751,5.27
same,association of response with ERBB2 amplification,[2],negatively associated with ERBB2 amplification
same,subtype-specific response (sensitivity by transcriptional subtype),[2]; GI50 across subtypes,ERBB2^AMP cell lines were resistant; also recorded: ERBB2AMP cell lines are resistant
same,Subtype specificity,"[2]; Table 6, most sensitive subtype, FDR p<0.20",not ERBB2AMP
Cc1ccc(NC(=O)c2ccc(CN3CCN(C)CC3)cc2)cc1Nc1nccc(-c2cccnc2)n1 [imatinib],interferon-gamma production,[3],inhibit interferon-gamma production
